Laboratory results from the supplement of paper PMC10307832.

Experiments:
Assay in all cases: relative viability (nuclei count vs DMSO), 5 days (fraction); higher = more cells survive
Linsitinib + Trametinib = compound: C[C@]1(O)C[C@@H](c2nc(-c3ccc4ccc(-c5ccccc5)nc4c3)c3c(N)nccn32)C1 [Linsitinib] + CC(=O)Nc1cccc(-n2c(=O)n(C3CC3)c(=O)c3c(Nc4ccc(I)cc4F)n(C)c(=O)c(C)c32)c1 [Trametinib] (partner 0.02 µM)
Procedure, shortened: (§1)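 Cells from lung cancer lines were seeded into 1536-well plates and, one day later, dosed by pin tool. Treatments were either a single drug or a fixed dose of an anchor drug with five library-drug doses (not always all listed) in √10 steps. After 5 days, nuclei were stained in a one-step fixation (final 0.05% Triton X-100, 1% formaldehyde, 1 ug/ml Hoechst) and counted on 4× images, and relative viability is the treated-to-vehicle nuclei ratio, as the median of duplicate plates.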

Linsitinib + Navitoclax = compound: C[C@]1(O)C[C@@H](c2nc(-c3ccc4ccc(-c5ccccc5)nc4c3)c3c(N)nccn32)C1 [Linsitinib] + CC1(C)CCC(c2ccc(Cl)cc2)=C(CN2CCN(c3ccc(C(=O)NS(=O)(=O)c4ccc(N[C@H](CCN5CCOCC5)CSc5ccccc5)c(S(=O)(=O)C(F)(F)F)c4)cc3)CC2)C1 [Navitoclax] (partner 0.5 µM)
Procedure, shortened: as §1

Linsitinib + Olaparib = compound: C[C@]1(O)C[C@@H](c2nc(-c3ccc4ccc(-c5ccccc5)nc4c3)c3c(N)nccn32)C1 [Linsitinib] + O=C(c1cc(Cc2n[nH]c(=O)c3ccccc23)ccc1F)N1CCN(C(=O)C2CC2)CC1 [Olaparib] (partner 8 µM)
Procedure, shortened: as §1

Ispinesib + Decitabine = compound: Cc1ccc(C(=O)N(CCCN)[C@@H](c2nc3cc(Cl)ccc3c(=O)n2Cc2ccccc2)C(C)C)cc1 [Ispinesib] + Nc1ncn([C@H]2C[C@H](O)[C@@H](CO)O2)c(=O)n1 [Decitabine] (partner 2 µM)
Procedure, shortened: as §1

Cell Line	relative viability (Linsitinib + Trametinib; first compound 0.01 µM)	relative viability (Linsitinib + Trametinib; first compound 0.03162 µM)	relative viability (Linsitinib + Trametinib; first compound 0.1 µM)	relative viability (Linsitinib + Trametinib; first compound 0.3162 µM)	relative viability (Linsitinib + Trametinib; first compound 1 µM)	relative viability (Linsitinib + Navitoclax; first compound 0.01 µM)	relative viability (Linsitinib + Navitoclax; first compound 0.03162 µM)	relative viability (Linsitinib + Navitoclax; first compound 0.1 µM)	relative viability (Linsitinib + Navitoclax; first compound 0.3162 µM)	relative viability (Linsitinib + Navitoclax; first compound 1 µM)	relative viability (Linsitinib + Olaparib; first compound 0.01 µM)	relative viability (Linsitinib + Olaparib; first compound 0.03162 µM)	relative viability (Linsitinib + Olaparib; first compound 0.1 µM)	relative viability (Linsitinib + Olaparib; first compound 0.3162 µM)	relative viability (Linsitinib + Olaparib; first compound 1 µM)	relative viability (Ispinesib + Decitabine; first compound 0.001 µM)	relative viability (Ispinesib + Decitabine; first compound 0.003162 µM)	relative viability (Ispinesib + Decitabine; first compound 0.01 µM)	relative viability (Ispinesib + Decitabine; first compound 0.03162 µM)	relative viability (Ispinesib + Decitabine; first compound 0.1 µM)
RERF-LC-KJ	0.903	0.829	0.87	0.731	0.771	0.862	0.813	0.581	0.791	0.558	0.933	0.884	0.841	0.847	0.538	0.738	0.617	0.243	0.222	0.271
LU99A	0.524	0.602	0.528	–	0.493	0.975	0.892	0.749	0.602	0.691	0.3	0.195	0.266	–	0.255	0.868	1.1	1.02	0.674	0.727
NCI-H650	1.04	1.06	0.902	–	0.87	–	–	–	–	–	0.381	0.537	0.405	–	0.398	0.289	0.325	0.328	0.33	0.306
NCI-H2347	0.277	0.274	0.303	0.287	0.418	0.731	0.915	0.717	0.533	0.754	0.584	0.687	0.598	0.608	0.596	0.625	0.618	0.597	0.578	0.589
HARA	0.448	0.809	0.878	–	0.623	1.09	1.17	1.13	0.788	1.15	0.631	0.396	0.69	–	0.935	0.514	0.467	0.573	0.709	0.314
NCI-H2228	0.569	0.595	0.378	0.347	0.363	0.81	1.09	0.941	0.787	0.791	0.763	0.601	0.735	0.379	0.477	–	–	–	–	–
EKVX	–	0.321	0.436	0.234	0.294	0.967	0.637	0.989	0.814	0.854	–	0.861	0.951	0.489	0.648	0.366	–	0.337	0.284	0.218
HCC-827	0.526	0.616	0.522	–	0.602	1	1.04	1.01	–	0.974	0.759	0.377	0.606	–	0.625	0.303	0.373	0.32	0.294	0.234
NCI-H1755	0.731	0.783	0.76	0.715	0.721	0.974	1.04	0.986	0.839	0.905	0.893	0.887	0.9	0.699	0.753	0.704	0.771	0.758	0.75	0.72
